Experimental data published in US20250017940A1, “SELECTIVE PEPTIDOMIMETIC MODULATORS OF CAV2.2 (N-TYPE) VOLTAGE-GATED CALCIUM CHANNELS AND USES THEREOF” (New York University, priority 2023, published 2025).

Legend:
[1] = Preliminary tests of analgesic properties
total Ca2+ currents = experiment: Whole-cell patch-clamp, total Ca2+ currents in small-to-medium DRG neurons; format: cell-based, rat; settings: 20 μM overnight; normalized to 0.1% DMSO control (1.00±0.06)
Description: Recordings were obtained from acutely dissociated DRG neurons as described earlier (Bellampalli et al., 2019). Patch-clamp recordings were performed at room temperature (22-24° C.). Currents were recorded using an EPC 10 Amplifier-HEKA (HEKA Elektronik, Ludwigshafen, Germany) linked to a computer with Patchmaster software. DRG neurons were incubated overnight (˜16-24 hours) with 20 μM of CBD3063.
For total calcium current (ICa^2+) recordings, the external solution consisted of the following (in mM): 110 N-methyl-D-glucamine, 10 BaCl2, 30 TEA-Cl, 10 HEPES, 10 glucose, and 0.001 TTX (pH 7.29 adjusted with TEA-OH, and mOsm/L=310). Patch pipettes were filled with an internal solution containing (in mM): 150 CsCl2, 10 HEPES, 5 Mg-ATP, and 5 BAPTA, (pH 7.2 adjusted with CsOH, and mOsm/L-305). Peak Ca^2+ current was acquired by applying 200-millisecond voltage steps from −70 to +60 mV in 10-mV increments from a holding potential of −90 mV to obtain the current-voltage (I-V) relation. To measure the different subtypes of Ca^2+ channels, DRGs were treated with a Cav inhibitor cocktail omitting the inhibitor specific to the subtype being tested (e.g., to measure Cav2.2 currents, ω-conotoxin GVIA is omitted): Nifedipine (10 μM, L-type), ω-Conotoxin-GVIA (500 nM, […]) (Feng, et al., 2001), SNX482 (200 nM, R-type) (Newcomb et al., 1998), ω-agatoxin (200 nM, P/Q-type) (Mintz et al., 1992), TTA-P2 (1 μM, T-type) (Choe et al., 2011).
Normalization of currents to each cell's capacitance (pF) was performed to allow for collection of current density data. For I-V curves, functions were fitted to data using a non-linear least squares analysis. I-V curves were fitted using double Boltzmann functions:
where x is the pre-pulse potential, V1/2 is the mid-point potential, and k is the corresponding slope factor for single Boltzmann functions. Double Boltzmann fits were used to describe the shape of the curve, not to imply the existence of separate channel populations. Numbers 1 and 2 simply indicate first and second mid-points; a along with g are fitting parameters.
Activation curves were obtained from the I-V curves by dividing the peak current at each depolarizing step by the driving force according to the equation: G=I/(Vmem-Erev), where I is the peak current, Vmem is the membrane potential and Erev is the reversal potential. The conductance (G) was normalized against the maximum conductance (Gmax). For total and the different subtypes of Ca^2+ currents, steady-state inactivation (SSI) curves were obtained by applying an H-infinity protocol that consisted of 1.5-seconds conditioning pre-pulses from −100 to +30 mV in 10-mV increments followed by a 20-millisecond test pulse to +10 mV. For Na^+ currents, SSI curves were obtained by applying an H-infinity protocol that consisted of 1-second conditioning pre-pulses from −120 to +10 mV in 10-mV increments followed by a 200-millisecond test pulse to +10 mV. Inactivation curves were obtained by dividing the peak current recorded at the test pulse by the maximum current (Imax). Activation and SSI curves were fitted with the Boltzmann equation.

Row | Structure (SMILES) | analgesic properties [1] | normalized peak total ICa2+ density (total Ca2+ currents)
1 | N=C(NCCCN1CCc2ccccc2C1)NCc1ccccc1 [CBD3065, N′-benzyl-N-[3-(3,4-dihydro-1H-isoquinolin-2-yl)propyl]guanidine] | did not exhibit analgesic properties | 0.52±0.07 ratio to DMSO control
2 | COc1ccccc1CNC(=N)NCCCN1Cc2ccccc2C1 [CBD3074, N-[3-(1,3-dihydroisoindol-2-yl)propyl]-N′-[(2-methoxyphenyl)methyl]guanidine] |  | 0.58±0.06 ratio to DMSO control
